Values joined by “and” are separate entries in the source; they are usually repeats but may differ in a detail not shown here. Equal values may be shown once. Toxic doses and inconclusive results are not listed. Cut-off read from the data, not from the text of the source: active = T/C of 150% or more; inactive = T/C below 125%.
System: L1210 leukemia ip in BDF1 mice, survival T/C
Assay: NCI In Vivo Anticancer Drug Screen. Data for tumor model L1210 Leukemia (intraperitoneal) in B6D2F1 (BDF1) mice
Conditions: endpoint: mean survival time, higher = longer survival
Procedure, shortened: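 Tumor cells were implanted, animals were treated, and survival was followed. The result divides the treated measurement by the vehicle-control measurement.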

[1] = dose: 100.0 mg/kg/injection, schedule: Q01DX009 (ip), vehicle: saline with Tween-80
[2] = dose: 200.0 mg/kg/injection, schedule: Q01DX009 (ip), vehicle: saline with Tween-80
[3] = dose: 100.0 mg/kg/injection, schedule: Q01DX001 (ip), vehicle: carboxymethylcellulose (CMC)
[4] = dose: 200.0 mg/kg/injection, schedule: Q01DX001 (ip), vehicle: carboxymethylcellulose (CMC)
[5] = dose: 400.0 mg/kg/injection, schedule: Q01DX001 (ip), vehicle: carboxymethylcellulose (CMC)
[6] = dose: 100.0 mg/kg/injection, schedule: Q04DX003 (ip), vehicle: Klucel (hydroxypropylcellulose) (HPC)
[7] = dose: 200.0 mg/kg/injection, schedule: Q04DX003 (ip), vehicle: Klucel (hydroxypropylcellulose) (HPC)
[8] = dose: 400.0 mg/kg/injection, schedule: Q04DX003 (ip), vehicle: Klucel (hydroxypropylcellulose) (HPC)
[9] = dose: 100.0 mg/kg/injection, schedule: Q04DX003 (ip), vehicle: saline
[10] = dose: 200.0 mg/kg/injection, schedule: Q04DX003 (ip), vehicle: saline
[11] = dose: 400.0 mg/kg/injection, schedule: Q04DX003 (ip), vehicle: saline
[12] = dose: 100.0 mg/kg/injection, schedule: Q01DX009 (ip), vehicle: Klucel (hydroxypropylcellulose) (HPC)
[13] = dose: 200.0 mg/kg/injection, schedule: Q01DX009 (ip), vehicle: Klucel (hydroxypropylcellulose) (HPC)
[14] = dose: 400.0 mg/kg/injection, schedule: Q01DX009 (ip), vehicle: Klucel (hydroxypropylcellulose) (HPC)

Measured: T/C

CC(C)(C)C(=O)CC(=O)C(C)(C)C.CC(C)(C)C(=O)CC(=O)C(C)(C)C.CC(C)(C)C(=O)CC(=O)C(C)(C)C.[Co]
inactive: dose: 100.0 mg/kg/injection, schedule: Q04DX002 (ip), vehicle: gum acacia 107 % of control | dose: 200.0 mg/kg/injection, schedule: Q04DX002 (ip), vehicle: gum acacia 90 % of control | dose: 400.0 mg/kg/injection, schedule: Q04DX002 (ip), vehicle: gum acacia 93 % of control

CNc1ccc(C(=O)C2CC2)cc1
inactive: [1] 92 % of control | dose: 100.0 mg/kg/injection, schedule: Q04DX003 (ip), vehicle: saline with Tween-80 100 % of control | [2] 98 % of control | dose: 200.0 mg/kg/injection, schedule: Q04DX003 (ip), vehicle: saline with Tween-80 100 % of control | dose: 400.0 mg/kg/injection, schedule: Q04DX003 (ip), vehicle: saline with Tween-80 86 % of control

O=C(Nc1ccc(F)cc1)Oc1ccc2ccccc2c1
inactive: [3] 103 % of control | dose: 100.0 mg/kg/injection, schedule: Q01DX009 (ip), vehicle: carboxymethylcellulose (CMC) 95 % of control and 97 % of control | dose: 100.0 mg/kg/injection, schedule: Q04DX002 (ip), vehicle: carboxymethylcellulose (CMC) 92 % of control and 98 % of control | [4] 94 % of control | dose: 200.0 mg/kg/injection, schedule: Q01DX009 (ip), vehicle: carboxymethylcellulose (CMC) 102 % of control and 90 % of control | dose: 200.0 mg/kg/injection, schedule: Q04DX002 (ip), vehicle: carboxymethylcellulose (CMC) 92 % of control and 102 % of control | [5] 97 % of control | dose: 400.0 mg/kg/injection, schedule: Q01DX009 (ip), vehicle: carboxymethylcellulose (CMC) 94 % of control and 90 % of control | dose: 400.0 mg/kg/injection, schedule: Q04DX002 (ip), vehicle: carboxymethylcellulose (CMC) 93 % of control

COC(=O)c1[nH]cnc1/N=N/N(C)C1CCCCC1
inactive: [3] 91 % of control | [4] 102 % of control

Ic1ccc(Oc2ccc(I)cc2)cc1
inactive: [6] 113 % of control | [7] 90 % of control | dose: 222.0 mg/kg/injection, schedule: Q01DX Z (ip), vehicle: methylcellulose (MC) 92 % of control | dose: 333.0 mg/kg/injection, schedule: Q01DX Z (ip), vehicle: methylcellulose (MC) 92 % of control | [8] 98 % of control | dose: 500.0 mg/kg/injection, schedule: Q01DX Z (ip), vehicle: methylcellulose (MC) 100 % of control

CCCCCC(=O)NCC(=O)N1CCC(C(=O)NCCCCC(=O)OC)C1 (stereo not given)
inactive: [9] 97 % of control | [10] 94 % of control | [11] 86 % of control

O=C(O)/C=C/SCc1ccccc1
inactive: dose: 100.0 mg/kg/injection, schedule: Q04DX002 (ip), vehicle: Klucel (hydroxypropylcellulose) (HPC) 97 % of control | dose: 200.0 mg/kg/injection, schedule: Q04DX002 (ip), vehicle: Klucel (hydroxypropylcellulose) (HPC) 90 % of control | dose: 400.0 mg/kg/injection, schedule: Q04DX002 (ip), vehicle: Klucel (hydroxypropylcellulose) (HPC) 97 % of control

CC1CN=C(c2cccc(NC(=O)NCCCCNC(=O)Nc3cccc(C4=NCC(C)N4)c3)c2)N1 (stereo not given)
inactive: dose: 6.5 mg/kg/injection, schedule: Q01DX Z (ip), vehicle: carboxymethylcellulose (CMC) 94 % of control

CC(=O)OCC(C)(C)N
inactive: dose: 100.0 mg/kg/injection, schedule: Q04DX002 (ip), vehicle: saline 89 % of control | dose: 200.0 mg/kg/injection, schedule: Q04DX002 (ip), vehicle: saline 110 % of control | dose: 400.0 mg/kg/injection, schedule: Q04DX002 (ip), vehicle: saline 95 % of control

O=C(C(=C(c1ccccc1)c1ccccc1)N1CCCCC1)c1ccccc1
inactive: dose: 100.0 mg/kg/injection, schedule: Q01DX001 (ip), vehicle: saline 96 % of control | [12] 92 % of control | dose: 200.0 mg/kg/injection, schedule: Q01DX001 (ip), vehicle: saline 97 % of control | [13] 92 % of control | dose: 400.0 mg/kg/injection, schedule: Q01DX001 (ip), vehicle: saline 97 % of control | [14] 92 % of control

CC(=O)c1sc2sc(C(C)=O)c(NC(=S)Nc3ccccc3Cl)c2c1NC(=S)Nc1ccccc1Cl
inactive: [12] 97 % of control | [13] 96 % of control | [14] 94 % of control

COC(=O)c1ccc(OC(=S)N(C)C)cc1
inactive: [6] 93 % of control | [7] 98 % of control | [8] 95 % of control

CC(C)C1CCC2=C(CCC3C(C)(C(=O)O)CCCC23C)C1 (stereo not given)
inactive: [1] 89 % of control | [2] 91 % of control | dose: 400.0 mg/kg/injection, schedule: Q01DX009 (ip), vehicle: saline with Tween-80 89 % of control

CCOC(=O)c1ccc(NC(=O)OC2CCCC2)cc1
inactive: [12] 100 % of control | [13] 101 % of control | [14] 92 % of control

CN1CN(c2ccccc2)C2(CCN(CCCCCCCl)CC2)C1=O
inactive: dose: 75.0 mg/kg/injection, schedule: Q04DX003 (ip), vehicle: Klucel (hydroxypropylcellulose) (HPC) 95 % of control | dose: 150.0 mg/kg/injection, schedule: Q04DX003 (ip), vehicle: Klucel (hydroxypropylcellulose) (HPC) 96 % of control | dose: 300.0 mg/kg/injection, schedule: Q04DX003 (ip), vehicle: Klucel (hydroxypropylcellulose) (HPC) 95 % of control

CN1C(=O)C=C(N)C1=O
inactive: [9] 96 % of control | [10] 94 % of control | [11] 91 % of control

c1ccc(Cc2cccc[n+]2Cc2ccccc2)cc1
inactive: dose: 12.5 mg/kg/injection, schedule: Q04DX003 (ip), vehicle: saline 102 % of control | dose: 25.0 mg/kg/injection, schedule: Q04DX003 (ip), vehicle: saline 105 % of control

CC(CO)(CO)N=Cc1cccc([N+](=O)[O-])c1
inactive: dose: 50.0 mg/kg/injection, schedule: Q01DX001 (ip), vehicle: carboxymethylcellulose (CMC) 103 % of control | [3] 103 % of control | [4] 103 % of control | [5] 97 % of control

O=C(OCC1COc2ccccc2O1)C(F)(F)F (stereo not given)
inactive: [3] 95 % of control | [4] 93 % of control | [5] 98 % of control

COc1ccc(CC2C(=O)NC(C)C(=O)N(C)C3C(=O)N(C)C(Cc4ccc(O)c(c4)Oc4ccc(cc4)C3O)C(=O)NC(C)C(=O)NC(C)C(=O)N2C)cc1 (stereo not given) (tested in a mixture with another compound)
inactive: dose: 0.25 mg/kg/injection, schedule: Q01DX009 (ip), vehicle: saline 112 % of control | dose: 0.5 mg/kg/injection, schedule: Q01DX009 (ip), vehicle: carboxymethylcellulose (CMC) 114 % of control | dose: 0.5 mg/kg/injection, schedule: Q01DX009 (ip), vehicle: saline 122 % of control | dose: 1.0 mg/kg/injection, schedule: Q01DX009 (ip), vehicle: carboxymethylcellulose (CMC) 115 % of control | dose: 1.0 mg/kg/injection, schedule: Q01DX009 (ip), vehicle: saline 120 % of control | dose: 2.0 mg/kg/injection, schedule: Q01DX009 (ip), vehicle: carboxymethylcellulose (CMC) 117 % of control | dose: 2.0 mg/kg/injection, schedule: Q01DX009 (ip), vehicle: saline 117 % of control

From PubChem BioAssay AID248 (DTP/NCI, 2004)
